What was measured:
Format in all cases: in vivo
[1] = tested on: Echinochloa oryzicola Vasing. (Eo); experiment: Test for herbicidal effect by paddy field soil treatment (Test Example 1); conditions: application amount (active ingredient) 100 g/10 a, examined at the 21st day from the treatment, index per Table 40
Method in brief: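 Scored on a standard scale at day 21 in the greenhouse: herbicidal effect of wettable powder applied to flooded water (3 cm depth) at 100 g a.i./10 ares, one day after sowing Eo into puddled paddy soil.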

[2] = tested on: Echinochloa crus-galli (L.) Beauv. var. crusgalli (Ec); experiment: Test for herbicidal effect by upland foliage treatment (Test Example 3); conditions: 100 g/10 a active ingredient, examined at 14th day
Method in brief: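 Scored 14 days post-spray against a graded standard: greenhouse-grown Ec, 2 weeks old in upland soil, received whole-foliage application of diluted wettable powder (100 g active ingredient per 10 ares, spray volume 100 L per 10 ares).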

[3] = tested on: Setaria viridis (L.) Beauv. (Se); experiment: Test for herbicidal effect by upland field soil treatment (Test Example 2), Se; conditions: 100 g/10 a active ingredient, examined at 21st day
Method in brief: (§1)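 Pre-emergence soil treatment: wettable powder diluted in water and sprayed on soil just sown with Ec and Se seeds, delivering 100 g active ingredient per 10 ares in 100 liters per 10 ares. Herbicidal effect was rated against a fixed scale 21 days later, after greenhouse growth.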

[4] = tested on: Echinochloa crus-galli (L.) Beauv. var. crusgall (Ec); experiment: Test for herbicidal effect by upland field soil treatment (Test Example 2), Ec; conditions: 100 g/10 a active ingredient, examined at 21st day
Method in brief: as §1

Row | Compound | Herbicidal effect to Eo [1] | Herbicidal effect to Ec [2] | Herbicidal effect to Se [3] | Herbicidal effect to Ec [4]
1 | CC1(C)CC(S(=O)(=O)Cc2ccc(C(F)(F)F)cc2F)=NO1 [Compound 1-528] | 5 (A herbicidal effect or phytotoxicity of 90% or more) | 5 (A herbicidal effect or phytotoxicity of 90% or more) | 5 (A herbicidal effect or phytotoxicity of 90% or more) | 5 (A herbicidal effect or phytotoxicity of 90% or more)
2 | Cc1cc(C)c(CS(=O)(=O)C2=NOC(C)(C)C2)c(C)c1 [Compound 1-529] | 5 (A herbicidal effect or phytotoxicity of 90% or more) | 5 (A herbicidal effect or phytotoxicity of 90% or more) | 5 (A herbicidal effect or phytotoxicity of 90% or more) | 5 (A herbicidal effect or phytotoxicity of 90% or more)
3 | COc1ccc([N+](=O)[O-])cc1CS(=O)(=O)C1=NOC(C)(C)C1 [Compound 1-530] | 5 (A herbicidal effect or phytotoxicity of 90% or more) | 5 (A herbicidal effect or phytotoxicity of 90% or more) | 5 (A herbicidal effect or phytotoxicity of 90% or more) | 5 (A herbicidal effect or phytotoxicity of 90% or more)
4 | CC1(C)CC(S(=O)(=O)Cc2c(F)c(F)c(F)c(F)c2F)=NO1 [Compound 1-531] | 5 (A herbicidal effect or phytotoxicity of 90% or more) | 5 (A herbicidal effect or phytotoxicity of 90% or more) | 5 (A herbicidal effect or phytotoxicity of 90% or more) | 5 (A herbicidal effect or phytotoxicity of 90% or more)
5 | COc1cccc(OC)c1CS(=O)(=O)C1=NOC(C)(C)C1 [Compound 1-535] | 5 (A herbicidal effect or phytotoxicity of 90% or more) | 4 (A herbicidal effect or phytotoxicity of 70% to less than 90%) | 5 (A herbicidal effect or phytotoxicity of 90% or more) | 5 (A herbicidal effect or phytotoxicity of 90% or more)
6 | CCOc1cccc(OCC)c1CS(=O)(=O)C1=NOC(C)(C)C1 [Compound 1-536] | 5 (A herbicidal effect or phytotoxicity of 90% or more) | 4 (A herbicidal effect or phytotoxicity of 70% to less than 90%) | 5 (A herbicidal effect or phytotoxicity of 90% or more) | 5 (A herbicidal effect or phytotoxicity of 90% or more)
7 | Cc1c(CS(=O)(=O)C2=NOC(C)(C)C2)cccc1[N+](=O)[O-] [Compound 1-537] | 5 (A herbicidal effect or phytotoxicity of 90% or more) | 4 (A herbicidal effect or phytotoxicity of 70% to less than 90%) | 5 (A herbicidal effect or phytotoxicity of 90% or more) | 5 (A herbicidal effect or phytotoxicity of 90% or more)
8 | CC1(C)CC(S(=O)(=O)Cc2ccc(F)cc2Cl)=NO1 [Compound 1-538] | 5 (A herbicidal effect or phytotoxicity of 90% or more) | 5 (A herbicidal effect or phytotoxicity of 90% or more) | 5 (A herbicidal effect or phytotoxicity of 90% or more) | 5 (A herbicidal effect or phytotoxicity of 90% or more)
9 | CC1(C)CC(S(=O)(=O)Cc2ccc(Cl)cc2[N+](=O)[O-])=NO1 [Compound 1-539] | 5 (A herbicidal effect or phytotoxicity of 90% or more) | 5 (A herbicidal effect or phytotoxicity of 90% or more) | 5 (A herbicidal effect or phytotoxicity of 90% or more) | 5 (A herbicidal effect or phytotoxicity of 90% or more)
10 | Cc1ccc([N+](=O)[O-])c(CS(=O)(=O)C2=NOC(C)(C)C2)c1 [Compound 1-540] | 5 (A herbicidal effect or phytotoxicity of 90% or more) | 5 (A herbicidal effect or phytotoxicity of 90% or more) | 5 (A herbicidal effect or phytotoxicity of 90% or more) | 5 (A herbicidal effect or phytotoxicity of 90% or more)
11 | CC1(C)CC(S(=O)(=O)Cc2ccc(F)c(C(F)(F)F)c2)=NO1 [Compound 1-541] | 5 (A herbicidal effect or phytotoxicity of 90% or more) | 4 (A herbicidal effect or phytotoxicity of 70% to less than 90%) | 5 (A herbicidal effect or phytotoxicity of 90% or more) | 5 (A herbicidal effect or phytotoxicity of 90% or more)
12 | CC1(C)CC(S(=O)(=O)Cc2cc(F)cc(C(F)(F)F)c2)=NO1 [Compound 1-542] | 5 (A herbicidal effect or phytotoxicity of 90% or more) | 4 (A herbicidal effect or phytotoxicity of 70% to less than 90%) | 5 (A herbicidal effect or phytotoxicity of 90% or more) | 5 (A herbicidal effect or phytotoxicity of 90% or more)
13 | CC1(C)CC(S(=O)(=O)Cc2cc(C(F)(F)F)cc(C(F)(F)F)c2)=NO1 [Compound 1-543] | 5 (A herbicidal effect or phytotoxicity of 90% or more) | 4 (A herbicidal effect or phytotoxicity of 70% to less than 90%) | 5 (A herbicidal effect or phytotoxicity of 90% or more) | 5 (A herbicidal effect or phytotoxicity of 90% or more)
14 | CC1(C)CC(S(=O)(=O)Cc2cc(C(F)(F)F)ccc2C(F)(F)F)=NO1 [Compound 1-544] | 5 (A herbicidal effect or phytotoxicity of 90% or more) | 5 (A herbicidal effect or phytotoxicity of 90% or more) | 5 (A herbicidal effect or phytotoxicity of 90% or more) | 5 (A herbicidal effect or phytotoxicity of 90% or more)
15 | CC1(C)CC(S(=O)(=O)Cc2cc(Br)cc(Br)c2)=NO1 [Compound 1-545] | 5 (A herbicidal effect or phytotoxicity of 90% or more) | 5 (A herbicidal effect or phytotoxicity of 90% or more) | 5 (A herbicidal effect or phytotoxicity of 90% or more) | 5 (A herbicidal effect or phytotoxicity of 90% or more)
16 | CC1(C)CC(S(=O)(=O)Cc2c(F)cccc2I)=NO1 [Compound 1-548] | 5 (A herbicidal effect or phytotoxicity of 90% or more) | 5 (A herbicidal effect or phytotoxicity of 90% or more) | 5 (A herbicidal effect or phytotoxicity of 90% or more) | 5 (A herbicidal effect or phytotoxicity of 90% or more)
17 | Cc1ccc(F)c(CS(=O)(=O)C2=NOC(C)(C)C2)c1F [Compound 1-550] | 5 (A herbicidal effect or phytotoxicity of 90% or more) | 5 (A herbicidal effect or phytotoxicity of 90% or more) | 5 (A herbicidal effect or phytotoxicity of 90% or more) | 5 (A herbicidal effect or phytotoxicity of 90% or more)
18 | CCCc1cccc(F)c1CS(=O)(=O)C1=NOC(C)(C)C1 [Compound 1-553] | 5 (A herbicidal effect or phytotoxicity of 90% or more) | 5 (A herbicidal effect or phytotoxicity of 90% or more) | 5 (A herbicidal effect or phytotoxicity of 90% or more) | 5 (A herbicidal effect or phytotoxicity of 90% or more)
19 | CC1(C)CC(S(=O)(=O)Cc2c(Br)cccc2Br)=NO1 [Compound 1-554] | 5 (A herbicidal effect or phytotoxicity of 90% or more) | 5 (A herbicidal effect or phytotoxicity of 90% or more) | 5 (A herbicidal effect or phytotoxicity of 90% or more) | 5 (A herbicidal effect or phytotoxicity of 90% or more)
20 | C#CCOc1ccccc1CS(=O)(=O)C1=NOC(C)(C)C1 [Compound 1-559] | 5 (A herbicidal effect or phytotoxicity of 90% or more) | 5 (A herbicidal effect or phytotoxicity of 90% or more) | 5 (A herbicidal effect or phytotoxicity of 90% or more) | 5 (A herbicidal effect or phytotoxicity of 90% or more)
21 | Cc1cccc(Cl)c1CS(=O)(=O)C1=NOC(C)(C)C1 [Compound 1-560] | 5 (A herbicidal effect or phytotoxicity of 90% or more) | 4 (A herbicidal effect or phytotoxicity of 70% to less than 90%) | 5 (A herbicidal effect or phytotoxicity of 90% or more) | 5 (A herbicidal effect or phytotoxicity of 90% or more)
22 | CC1(C)CC(S(=O)(=O)Cc2c(Cl)cccc2OC(F)F)=NO1 [Compound 1-561] | 5 (A herbicidal effect or phytotoxicity of 90% or more) | 4 (A herbicidal effect or phytotoxicity of 70% to less than 90%) | 5 (A herbicidal effect or phytotoxicity of 90% or more) | 5 (A herbicidal effect or phytotoxicity of 90% or more)
23 | CC1(C2CC2)CC(S(=O)(=O)Cc2ccccc2OC(F)F)=NO1 (centres unmarked) [Compound 1-562] | 5 (A herbicidal effect or phytotoxicity of 90% or more) | 4 (A herbicidal effect or phytotoxicity of 70% to less than 90%) | 5 (A herbicidal effect or phytotoxicity of 90% or more) | 5 (A herbicidal effect or phytotoxicity of 90% or more)
